Assay results as given in paper PMC8953086, “Repurposing Avasimibe to Inhibit Bacterial Glycosyltransferases” (Pathogens, 2022).

Experiments:
SseK1 = SseK1 (Salmonella enterica, UniProt A0A0H3NK84); assay: biochemical
NleB = NleB (Citrobacter rodentium, UniProt A0A482PDI9); assay: biochemical
Chain of NleB (A0A482PDI9 whole entry, looked up): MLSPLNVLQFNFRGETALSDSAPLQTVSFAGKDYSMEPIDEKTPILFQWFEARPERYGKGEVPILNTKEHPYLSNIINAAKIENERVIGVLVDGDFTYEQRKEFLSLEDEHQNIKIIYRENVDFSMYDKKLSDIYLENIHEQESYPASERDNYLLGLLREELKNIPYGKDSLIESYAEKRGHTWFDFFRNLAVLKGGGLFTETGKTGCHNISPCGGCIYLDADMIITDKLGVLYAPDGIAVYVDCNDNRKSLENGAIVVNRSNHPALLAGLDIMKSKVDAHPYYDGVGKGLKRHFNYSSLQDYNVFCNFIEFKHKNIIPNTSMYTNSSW

Chain of SseK1 (A0A0H3NK84 whole entry, looked up): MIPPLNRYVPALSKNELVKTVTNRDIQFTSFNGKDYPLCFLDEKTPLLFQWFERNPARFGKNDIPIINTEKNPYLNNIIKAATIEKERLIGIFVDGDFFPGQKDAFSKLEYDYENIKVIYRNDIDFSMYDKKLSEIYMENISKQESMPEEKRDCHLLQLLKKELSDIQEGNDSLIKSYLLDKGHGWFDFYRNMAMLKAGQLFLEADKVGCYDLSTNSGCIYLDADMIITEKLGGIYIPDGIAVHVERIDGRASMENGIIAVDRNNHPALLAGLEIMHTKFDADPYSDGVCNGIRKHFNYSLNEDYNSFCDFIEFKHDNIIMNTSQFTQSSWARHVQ

CC(C)c1cc(C(C)C)c(CC(=O)NS(=O)(=O)Oc2c(C(C)C)cccc2C(C)C)c(C(C)C)c1 [avasimibe]
IC50 (SseK1): ~10 µM | IC50 (NleB): ~10 µM
